From ChEMBL document CHEMBL1201862, “PubChem BioAssay data set” (2004)
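Five compound concentrations were applied to cells in 96-well plates for 48 hours; endpoints were derived by simple linear interpolation of the resulting dose-response curve. GI50 = concentration required for 50% inhibition of growth.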 The source made the active and inactive calls. Rule as the data show it: active = GI50 up to about 1.1 µM and inactive = higher.

Columns and labels:
Test in all cases: NCI anticancer screen, dose series, 48 h
[1] = test system: EKVX
[2] = test system: HT-29
[3] = test system: DU-145
[4] = test system: MDA-MB-231
[5] = test system: SNB-19
[6] = test system: OVCAR-8
[7] = test system: Hs-578T
[8] = test system: HL-60
[9] = test system: OVCAR-4
[10] = test system: MCF7
[11] = test system: COLO 205
[12] = test system: NCI-H23
[13] = test system: MDA-MB-435
[14] = test system: U-251
[15] = test system: KM12
[16] = test system: MDA-N
[17] = test system: NCI-H226
[18] = test system: UO-31
[19] = test system: BT-549
[20] = test system: SNB-75
[21] = test system: HCT-15
[22] = test system: UACC-257
[23] = test system: HCT-116
[24] = test system: RPMI-8226
[25] = test system: SF-268
[26] = test system: OVCAR-5
[27] = test system: A549
[28] = test system: ACHN
[29] = test system: OVCAR-3
[30] = test system: 786-0
[31] = test system: SK-MEL-5
[32] = test system: NCI/ADR-RES
[33] = test system: CAKI-1
[34] = test system: TK-10
[35] = test system: HCC 2998
[36] = test system: HOP-62
[37] = test system: SR
[38] = test system: PC-3
[39] = test system: IGROV-1
[40] = test system: LOX IMVI
[41] = test system: MOLT-4
[42] = test system: SK-MEL-28
[43] = test system: SN12C
[44] = test system: NCI-H460
[45] = test system: SK-MEL-2
[46] = test system: SW-620
[47] = test system: HOP-92
[48] = test system: CCRF-CEM
[49] = test system: M14
[50] = test system: A498
[51] = test system: SF-295
[52] = test system: K562
[53] = test system: SF-539
[54] = test system: Malme-3M

Measured: GI50

CCOC(=O)c1[nH]c2cccc3c2c1CC[C@H](NC(=O)C(F)(F)F)C3=O
inactive: [2] > 100 µM | [3] > 100 µM | [4] > 100 µM | [5] 15.8 µM | [6] 19.7 µM | [7] 19.5 µM | [8] > 100 µM | [9] 24.7 µM | [10] 73.1 µM | [11] > 100 µM | [12] 70.6 µM | [13] 45.1 µM | [14] 22.5 µM | [15] 61.8 µM | [16] 34.5 µM | [17] > 100 µM | [18] > 100 µM | [19] 40.4 µM | [20] 24.3 µM | [22] 76.6 µM | [23] 35.6 µM | [24] > 100 µM | [25] 37.1 µM | [26] > 100 µM | [27] 28.8 µM | [29] > 100 µM | [30] 31.2 µM | [31] 22.5 µM | [32] 54 µM | [33] 13.9 µM | [34] 46 µM | [35] > 100 µM | [36] 24 µM | [37] > 100 µM | [38] 64.6 µM | [39] 75.5 µM | [40] 78 µM | [41] > 100 µM | [43] 40.3 µM | [44] 53.6 µM | [45] 20 µM | [46] 76.7 µM | [47] 22.6 µM | [48] > 100 µM | [49] 95.5 µM | [50] 43.7 µM | [51] 22.3 µM | [52] 45.8 µM | [53] 38.1 µM | [54] > 100 µM
> 100 µM: [21]
active: [1] < 0.01 µM | [28] < 0.01 µM | [42] < 0.01 µM
